In ChEMBL document CHEMBL1154450, “Synthesis and biological evaluation of diversely substituted indolin-2-ones” (Eur J Med Chem, 2008):
One block for each molecule: values may come before it. Active and inactive are the calls of the source. The rule behind the calls is not given here.

Legend:
[1] = target: Tyrosine-protein kinase ABL1 (Homo sapiens, UniProt P00519); assay: Inhibition of c-Abl
[2] = test system: Bacillus cereus; assay: Antibacterial activity against Bacillus cereus ATCC 14579 at 300 ug/disk after 24 hrs by paper disk diffusion test; assay type: functional; conditions: ATCC 14579, 24 h, read-out: IZ
[3] = target: Insulin-like growth factor 1 receptor (Homo sapiens, UniProt P08069); assay: Inhibition of IGF1R
[4] = test system: Candida albicans; assay: Antimicrobial activity against Candida albicans IP444 at 300 ug/disk after 24 hrs by paper disk diffusion test; assay type: functional; conditions: for zone of inhibition at 300 µg/disc: read-out: IZ
[5] = target: Proto-oncogene tyrosine-protein kinase receptor Ret (Homo sapiens, UniProt P07949); assay: Inhibition of Ret
[6] = target: Hepatocyte growth factor receptor (Homo sapiens, UniProt P08581); assay: Inhibition of cMet
[7] = target: Proto-oncogene tyrosine-protein kinase Src (Homo sapiens, UniProt P12931); assay: Inhibition of Src
[8] = test system: Escherichia coli; assay: Antibacterial activity against Escherichia coli ATCC 11303 at 300 ug/disk after 24 hrs by paper disk diffusion test; assay type: functional; conditions: for zone of inhibition at 300 µg/disc: ATCC 11303, 24 h, read-out: IZ
[9] = target: Vascular endothelial growth factor receptor 2 (Homo sapiens, UniProt P35968); assay: Inhibition of KDR
[10] = test system: Streptomyces chartreusis; assay: Antibacterial activity against Streptomyces chartreusis NRRL 11407 at 300 ug/disk after 24 hrs by paper disk diffusion test; assay type: functional; conditions: NRRL 11407, 24 h, read-out: IZ
[11] = Inhibition of PKA
[12] = target: Cyclin-dependent kinase 2 (Homo sapiens, UniProt P24941); assay: Inhibition of CDK2/Cyclin A

Chain of Insulin-like growth factor 1 receptor (P08069 31-736 limits assumed): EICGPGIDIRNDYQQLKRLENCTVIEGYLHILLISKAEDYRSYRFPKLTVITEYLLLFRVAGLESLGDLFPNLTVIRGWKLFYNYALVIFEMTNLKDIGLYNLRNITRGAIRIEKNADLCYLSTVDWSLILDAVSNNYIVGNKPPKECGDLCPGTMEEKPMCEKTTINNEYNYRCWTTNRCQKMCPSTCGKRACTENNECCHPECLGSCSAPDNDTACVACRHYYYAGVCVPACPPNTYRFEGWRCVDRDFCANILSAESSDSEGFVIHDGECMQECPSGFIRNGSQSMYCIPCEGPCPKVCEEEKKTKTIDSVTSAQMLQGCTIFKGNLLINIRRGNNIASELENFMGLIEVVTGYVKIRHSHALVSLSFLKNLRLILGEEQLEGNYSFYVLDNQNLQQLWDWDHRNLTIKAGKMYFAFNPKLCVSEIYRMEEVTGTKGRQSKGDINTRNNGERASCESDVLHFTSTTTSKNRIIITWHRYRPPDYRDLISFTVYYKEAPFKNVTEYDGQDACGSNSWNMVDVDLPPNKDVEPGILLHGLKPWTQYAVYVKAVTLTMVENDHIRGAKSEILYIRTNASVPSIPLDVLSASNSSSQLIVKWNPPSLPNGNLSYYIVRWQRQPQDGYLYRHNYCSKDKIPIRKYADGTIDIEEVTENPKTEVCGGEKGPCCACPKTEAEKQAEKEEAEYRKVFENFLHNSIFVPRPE
Chain of Insulin-like growth factor 1 receptor (P08069 741-1367 limits assumed): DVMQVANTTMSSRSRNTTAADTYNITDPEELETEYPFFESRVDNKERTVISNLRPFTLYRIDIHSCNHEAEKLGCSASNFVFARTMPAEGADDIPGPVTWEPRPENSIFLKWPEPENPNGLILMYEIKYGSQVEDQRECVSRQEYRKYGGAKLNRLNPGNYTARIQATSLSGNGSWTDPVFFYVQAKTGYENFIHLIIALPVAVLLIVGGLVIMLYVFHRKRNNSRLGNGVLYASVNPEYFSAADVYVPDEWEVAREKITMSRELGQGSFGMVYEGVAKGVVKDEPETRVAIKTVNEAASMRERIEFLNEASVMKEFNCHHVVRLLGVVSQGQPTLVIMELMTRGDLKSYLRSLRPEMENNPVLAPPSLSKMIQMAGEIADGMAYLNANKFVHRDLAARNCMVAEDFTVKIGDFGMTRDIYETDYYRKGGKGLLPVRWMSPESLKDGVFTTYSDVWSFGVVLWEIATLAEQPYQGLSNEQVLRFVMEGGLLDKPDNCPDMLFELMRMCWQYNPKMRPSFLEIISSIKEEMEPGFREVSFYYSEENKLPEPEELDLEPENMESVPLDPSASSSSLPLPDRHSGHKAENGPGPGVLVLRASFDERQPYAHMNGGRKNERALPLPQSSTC
Chain of Proto-oncogene tyrosine-protein kinase receptor Ret (P07949 whole entry): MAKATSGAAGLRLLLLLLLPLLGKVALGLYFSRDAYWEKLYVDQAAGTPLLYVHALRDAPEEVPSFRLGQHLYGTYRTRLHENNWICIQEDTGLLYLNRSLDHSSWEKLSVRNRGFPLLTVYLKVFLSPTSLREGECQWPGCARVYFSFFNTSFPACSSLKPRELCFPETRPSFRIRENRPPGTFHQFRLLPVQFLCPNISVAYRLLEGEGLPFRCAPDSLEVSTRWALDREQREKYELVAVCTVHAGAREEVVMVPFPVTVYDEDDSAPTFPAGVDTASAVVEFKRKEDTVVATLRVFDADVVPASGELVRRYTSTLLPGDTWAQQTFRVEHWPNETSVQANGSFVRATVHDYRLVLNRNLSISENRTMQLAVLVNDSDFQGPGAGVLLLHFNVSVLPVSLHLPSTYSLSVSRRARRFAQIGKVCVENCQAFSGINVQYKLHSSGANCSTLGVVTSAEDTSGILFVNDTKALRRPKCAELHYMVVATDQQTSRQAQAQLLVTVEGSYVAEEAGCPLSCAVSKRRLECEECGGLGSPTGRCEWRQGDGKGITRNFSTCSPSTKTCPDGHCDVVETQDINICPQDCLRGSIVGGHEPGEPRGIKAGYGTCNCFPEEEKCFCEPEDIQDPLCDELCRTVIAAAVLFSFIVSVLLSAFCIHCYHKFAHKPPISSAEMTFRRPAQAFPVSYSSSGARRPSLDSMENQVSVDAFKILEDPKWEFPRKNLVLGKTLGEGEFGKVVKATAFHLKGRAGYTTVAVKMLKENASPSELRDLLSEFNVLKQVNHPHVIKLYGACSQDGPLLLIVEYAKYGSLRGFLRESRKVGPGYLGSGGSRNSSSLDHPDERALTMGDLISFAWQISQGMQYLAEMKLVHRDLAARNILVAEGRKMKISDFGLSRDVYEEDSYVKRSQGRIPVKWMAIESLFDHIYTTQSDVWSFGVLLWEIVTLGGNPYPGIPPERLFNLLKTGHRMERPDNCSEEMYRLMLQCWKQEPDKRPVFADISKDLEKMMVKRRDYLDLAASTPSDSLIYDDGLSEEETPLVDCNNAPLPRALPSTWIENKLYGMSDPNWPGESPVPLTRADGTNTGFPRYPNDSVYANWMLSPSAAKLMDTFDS
Chain of Hepatocyte growth factor receptor (P08581 whole entry): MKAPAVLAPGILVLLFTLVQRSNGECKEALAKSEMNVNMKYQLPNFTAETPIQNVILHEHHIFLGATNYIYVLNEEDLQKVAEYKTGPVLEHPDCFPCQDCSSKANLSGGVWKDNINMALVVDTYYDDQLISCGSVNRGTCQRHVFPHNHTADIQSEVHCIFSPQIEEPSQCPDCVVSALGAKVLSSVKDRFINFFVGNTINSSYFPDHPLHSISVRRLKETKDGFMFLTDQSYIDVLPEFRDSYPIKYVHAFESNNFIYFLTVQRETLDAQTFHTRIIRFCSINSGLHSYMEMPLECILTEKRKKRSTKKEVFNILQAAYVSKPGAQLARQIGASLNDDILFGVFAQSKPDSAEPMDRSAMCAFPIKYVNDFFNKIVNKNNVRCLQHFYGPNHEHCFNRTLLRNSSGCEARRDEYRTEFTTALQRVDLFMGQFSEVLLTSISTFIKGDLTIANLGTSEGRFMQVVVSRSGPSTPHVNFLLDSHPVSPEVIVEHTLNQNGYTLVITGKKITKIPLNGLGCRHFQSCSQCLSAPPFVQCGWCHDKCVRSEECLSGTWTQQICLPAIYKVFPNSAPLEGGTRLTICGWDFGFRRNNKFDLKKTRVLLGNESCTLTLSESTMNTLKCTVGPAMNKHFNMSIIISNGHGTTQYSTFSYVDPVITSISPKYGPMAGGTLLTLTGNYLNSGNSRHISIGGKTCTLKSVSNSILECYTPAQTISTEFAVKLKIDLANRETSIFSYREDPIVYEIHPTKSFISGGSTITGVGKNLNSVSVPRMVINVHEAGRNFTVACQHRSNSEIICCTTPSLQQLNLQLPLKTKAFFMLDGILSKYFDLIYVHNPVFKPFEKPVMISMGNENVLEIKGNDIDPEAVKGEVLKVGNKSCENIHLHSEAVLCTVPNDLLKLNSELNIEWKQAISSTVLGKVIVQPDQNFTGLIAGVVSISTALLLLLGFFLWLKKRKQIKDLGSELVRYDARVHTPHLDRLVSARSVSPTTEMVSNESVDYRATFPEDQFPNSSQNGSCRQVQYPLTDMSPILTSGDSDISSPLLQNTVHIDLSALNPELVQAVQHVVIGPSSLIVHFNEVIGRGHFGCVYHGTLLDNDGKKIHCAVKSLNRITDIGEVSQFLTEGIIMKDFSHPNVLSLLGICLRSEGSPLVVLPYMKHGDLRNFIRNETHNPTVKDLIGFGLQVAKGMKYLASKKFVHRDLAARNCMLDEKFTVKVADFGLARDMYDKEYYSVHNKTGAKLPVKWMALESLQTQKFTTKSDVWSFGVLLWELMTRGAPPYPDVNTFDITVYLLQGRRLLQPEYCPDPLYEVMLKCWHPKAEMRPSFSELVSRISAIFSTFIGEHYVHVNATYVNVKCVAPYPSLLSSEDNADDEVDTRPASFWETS
Chain of Tyrosine-protein kinase ABL1 (P00519 whole entry, the tested form may be a part): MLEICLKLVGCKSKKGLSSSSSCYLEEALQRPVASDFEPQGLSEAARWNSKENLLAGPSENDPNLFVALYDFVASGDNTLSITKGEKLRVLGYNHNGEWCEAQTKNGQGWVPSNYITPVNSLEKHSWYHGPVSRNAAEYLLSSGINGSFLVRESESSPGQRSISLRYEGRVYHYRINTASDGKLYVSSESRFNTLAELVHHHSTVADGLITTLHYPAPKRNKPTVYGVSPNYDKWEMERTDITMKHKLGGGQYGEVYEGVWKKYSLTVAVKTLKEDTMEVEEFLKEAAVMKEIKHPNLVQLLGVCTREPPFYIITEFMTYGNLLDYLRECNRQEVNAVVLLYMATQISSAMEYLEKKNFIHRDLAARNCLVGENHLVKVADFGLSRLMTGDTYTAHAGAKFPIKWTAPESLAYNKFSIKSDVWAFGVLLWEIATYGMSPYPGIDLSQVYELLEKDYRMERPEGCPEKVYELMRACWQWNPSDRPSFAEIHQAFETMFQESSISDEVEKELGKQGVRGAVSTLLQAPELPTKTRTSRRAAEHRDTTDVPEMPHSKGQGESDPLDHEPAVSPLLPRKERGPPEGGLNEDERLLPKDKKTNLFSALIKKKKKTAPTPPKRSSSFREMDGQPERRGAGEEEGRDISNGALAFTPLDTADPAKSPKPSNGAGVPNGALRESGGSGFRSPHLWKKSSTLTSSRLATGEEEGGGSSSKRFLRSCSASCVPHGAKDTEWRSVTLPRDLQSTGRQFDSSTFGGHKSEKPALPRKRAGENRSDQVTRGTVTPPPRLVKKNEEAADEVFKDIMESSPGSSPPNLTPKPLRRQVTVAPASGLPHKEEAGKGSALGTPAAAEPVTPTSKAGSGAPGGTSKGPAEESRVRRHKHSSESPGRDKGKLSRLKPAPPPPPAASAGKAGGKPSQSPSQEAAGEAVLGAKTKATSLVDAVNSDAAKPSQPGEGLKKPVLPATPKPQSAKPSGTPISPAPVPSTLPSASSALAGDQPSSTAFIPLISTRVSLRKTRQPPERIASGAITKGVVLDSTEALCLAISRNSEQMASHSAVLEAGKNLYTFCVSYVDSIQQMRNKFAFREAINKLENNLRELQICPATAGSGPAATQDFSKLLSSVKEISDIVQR

Compound: N[C@@H](CCCN/C=C1\C(=O)Nc2ccccc21)C(=O)O
- IC50 [1]: > 10 µM
- zone of inhibition at 300 µg/disc [2]: 7 mm
- IC50 [3]: > 10 µM
- zone of inhibition at 300 µg/disc [4]: 6 mm
- IC50 [5]: > 10 µM
- IC50 [6]: > 10 µM
- IC50 [7]: > 10 µM
- zone of inhibition at 300 µg/disc [8]: 6 mm
- IC50 [9]: > 10 µM
- zone of inhibition at 300 µg/disc [10]: 10 mm
- IC50 [11]: > 10 µM

Compound: CC1(C)S[C@@H]2[C@H](NC(=O)[C@H](N)c3ccccc3)C(=O)N2[C@H]1C(=O)O [AMPICILLIN]
- zone of inhibition at 300 µg/disc [2]: 13 mm
- zone of inhibition at 300 µg/disc [8]: 31 mm
- zone of inhibition at 300 µg/disc [10]: 25 mm

Compound: C[C@@H]1[C@H](O)[C@@H](C)/C=C/C=C/C=C/C=C/C=C/C=C/C=C/[C@H](O[C@@H]2O[C@H](C)[C@@H](O)[C@H](N)[C@@H]2O)C[C@@H]2O[C@](O)(C[C@@H](O)C[C@@H](O)[C@H](O)CC[C@@H](O)C[C@@H](O)CC(=O)O[C@H]1C)C[C@H](O)[C@H]2C(=O)O [AMPHOTERICIN B]
- zone of inhibition at 300 µg/disc [4]: 13 mm

Second part, led by results:

- IC50 [1]: > 10 µM
- IC50 [3]: > 10 µM
- IC50 [5]: > 10 µM
- IC50 [6]: > 10 µM
- IC50 [7]: > 10 µM
- IC50 [9]: > 10 µM
- IC50 [11]: > 10 µM
Compound: N[C@@H](CCCCN/C=C1\C(=O)Nc2ccc(Br)cc21)C(=O)O
- zone of inhibition at 300 µg/disc [2]: 6 mm
- zone of inhibition at 300 µg/disc [4]: 6 mm
- Activity [8]: inactive
- zone of inhibition at 300 µg/disc [10]: 7 mm

- IC50 [1]: > 10 µM
- IC50 [3]: > 10 µM
- IC50 [5]: > 10 µM
- IC50 [12]: 6.6 µM
- IC50 [6]: > 10 µM
- IC50 [7]: > 10 µM
- IC50 [9]: > 10 µM
- IC50 [11]: > 10 µM
Compound: N[C@@H](CCCN/C=C1\C(=O)Nc2ccc(Br)cc21)C(=O)O
- zone of inhibition at 300 µg/disc [2]: 7 mm
- Activity [4]: inactive
- Activity [8]: inactive
- zone of inhibition at 300 µg/disc [10]: 8 mm

- IC50 [1]: > 10 µM
- IC50 [3]: > 10 µM
- IC50 [5]: > 10 µM
- IC50 [6]: > 10 µM
- IC50 [7]: > 10 µM
- IC50 [9]: > 10 µM
- IC50 [11]: > 10 µM
Compound: N[C@@H](CCCCN/C=C1\C(=O)Nc2ccccc21)C(=O)O
- zone of inhibition at 300 µg/disc [2]: 6 mm
- zone of inhibition at 300 µg/disc [4]: 6 mm
- Activity [8]: inactive
- zone of inhibition at 300 µg/disc [10]: 6 mm
